The numbers were not newly measured in patent US20100285081A1, “Bactericidal Nanofibers, and Methods of Use Thereof” (MASSACHUSETTS INSTITUTE OF TECHNOLOGY, priority 2007, published 2010), which cites them from elsewhere.

Series [1] relates to E. coli. Conditions: from Buxbaum et al. 2006.
Series [2] has as its system S. epidermidis. Particulars: from Buxbaum et al. 2006.

For `[H]/N=C(\N/C(=N/[H])NCCCCCCNC(=N)NC(=N)Nc1ccc(Cl)cc1)Nc1ccc(Cl)cc1` [CHX, chlorhexidine], the “minimum inhibitory concentration of CHX” value in series [1] was 2 to 8 µg/mL; in series [2], 0.5 to 2 µg/mL.
